From publication PMC6504873, “High-throughput screening of the Plasmodium falciparum cGMP-dependent protein kinase identified a thiazole scaffold which kills erythrocytic and sexual stage parasites” (Scientific Reports, 2019)
Values after ≈ are worked out from the molar mass of the structure shown.

Key:
[1] = design: method as in PMID 24958809; conditions: in the clinic ref 39; cited from earlier work
P. falciparum = system: P. falciparum; design: method as in PMID 28446690; conditions: P. falciparum mouse model ref 44; cited from earlier work
P. berghei = system: P. berghei; design: method as in PMID 28446690; conditions: P. berghei mouse model ref 44; cited from earlier work
TQ PfPKG (PfPKG_T618Q) = molecular target: T1, TQ PfPKG (PfPKG_T618Q) (Plasmodium falciparum, UniProt Q8I719, T618Q); experiment: Kinase Glo enzymatic assay, gatekeeper mutant TQ PfPKG; assay type: biochemical, P. falciparum
T1 construct: His6 (N); host or cells: E. coli BL21
Experimental: Taking advantage of the availability of more than 3,000 thiazole derivatives among the GSK compound collection, cluster 3 was thoroughly investigated for potent and selective inhibitors of WT PfPKG. […] We explored the binding mode by also testing compounds on the gatekeeper mutant enzyme TQ PfPKG. […] These two time points were chosen to give an indication of the speed of kill of the compounds. […] A preliminary safety test was performed on human AuroraB and LCK kinases which often underpin toxicity issues. […] Further assays for compound characterization included determination of solubility and cytotoxicity (HepG2 inhibition). Thiazoles have been previously identified as human BRaf inhibitors that are used to treat melanoma.
(§1) Protein production was outsourced to the Division of Signal Transduction Therapy, University of Dundee. Briefly, the pTRChis expression vectors (Invitrogen) containing an N-terminally His6-tagged PfPKG wildtype and T618Q were used to transform BL21 cells (protocol adapted from[23]). The cells were grown at 37 °C until the OD600 was 0.4–0.6 then the temperature was reduced to 15 °C and the cells were induced with 250 µM IPTG and grown for a further 16–18 hours before harvesting. The His6-PfPKG was purified on Cobalt agarose followed by gel filtration and the protein was dialysed into 25 mM Hepes pH 7.5, 0.1 mM EGTA, 150 mM NaCl, 50% glycerol and 2 mM DTT.
(§2) Initial optimization of the PKG assay was performed manually in 384-well plates and analysed with GraFit 7. The buffer for all assays was 25 mM HEPES pH 7.3 (GIBCO), 10 mM MgCl2 (Sigma), 2 mM DTT (Sigma), 0.01 mM cGMP (Sigma), 0.1 mg/ml BSA (Ambion). Enzymatic activity was tested using a luminescence-based kit (Promega KinaseGlo). Addition of the first reagent depletes the unused ATP and addition of the second reagent converts ADP (product of the kinase reaction) to ATP, which is then measured through a luciferin/luciferase reaction. The amount of luminescence is directly proportional to ATP turnover by the kinase. The kit was chosen because it can be miniaturized to small volumes (i.e. 4 µl) in 1536-well plates, for use in HTS.
(§3) We used PKA peptide substrate (SCP0212, Sigma-Aldrich) for WT and TQ PfPKG, dissolved in milliQ water at a final concentration of 5 mM, and Long S6 peptide substrate (produced at the University of Dundee, sequence […]) for HuPKGIα, dissolved in water at a final concentration of 30 mM.
(§4) We calculated the Michaelis-Menten (Km) constant for ATP and peptide substrate (PKA or Long S6) for all enzymes using GraphPad Prism (Supplementary Figs 2 and 3 and Supplementary Table 3). In order to identify different types of PKG inhibitors, including ATP competitive or non-competitive inhibitors, as well as inhibitors that bind to the peptide substrate pocket, we performed all assays using ATP and peptide substrate at a concentration equal to the Km. We also determined enzyme activity by calculating ATP turnover (Kcat) over the Km (Supplementary Table 3). The Kcat was calculated as (Vmax*slope)/[E] where Vmax is the maximum velocity and [E] is the concentration of the enzyme.
(§5) The plates containing the compounds were prepared at GSK in Upper Providence or Stevenage. Compounds were tested at a single final concentration of 10 µM or in a dose response with a range of concentrations starting from 100 μM to 1.6 nM (1 in 3 serial dilutions). Compounds were dispensed in the plates at the required concentration in a 40 nl volume. All plates (1536-well white Greiner) contained 40 nl of DMSO in lanes 11 and 12 (control 1, 100% enzyme activity) and were empty in lanes 35 and 36 (control 2, 0% enzyme activity). The plates were removed from −20 °C 1 hour before starting the assay. Using a Multidrop Combi dispenser (Thermo Scientific), 2 µl of the buffer containing ATP and the substrate were added to all wells then 2 µl of buffer only were added to column 35 and 36. […]

[2] = ChromlogD (lipophilicity)
PI3KD = PI3KD (Homo sapiens, UniProt O00329); experiment: Preliminary safety test on human PI3KD kinase; assay type: biochemical
WT PfPKG = molecular target: T2, WT PfPKG (Plasmodium falciparum, UniProt Q8I719); experiment: Kinase Glo enzymatic assay, recombinant WT PfPKG; assay type: biochemical, P. falciparum; conditions: WT PfPKG (μM), recombinant WT PfPKG
T2 construct: recombinant full length wild type (WT) PfPKG; His6 (N); host or cells: E. coli BL21
Experimental: To identify new PKG inhibitor scaffolds, the 1.7 million GlaxoSmithKline Full Diversity collection was tested at a single final concentration of 10 μM against recombinant full length wild type (WT) PfPKG using a Kinase Glo-based assay (Promega). The results gave a robust Z′ mean value of 0.85. At an average statistical cut-off of 30%, 20,174 primary hits were identified with an overall hit rate of 1%. Fresh samples of these primary hits were tested in duplicate against WT PfPKG and also against human PKGIα (HuPKGIα) (Supplementary Fig. 1) at a final concentration of 10 μM (confirmation step).
as §1, §2, §3, §4
as §5, with “36. Finally 2 µl of buffer containing the enzyme were dispensed in all the plate wells except for lanes 35 and 36.” for “36.”

[3] = AM_Perm (artificial membrane permeability); assay type: in vitro ADME; conditions: PAMPA
PFI = assay type: physicochemical
Experimental: Dose response assays were performed in duplicate on WT PfPKG, HuPKGIα and a mock assay performed in the absence of enzyme (the counterscreen). Comparison of the PfPKG and HuPKGIα IC50 values gave information on selectivity and the counterscreen identified luminescent false positive compounds (see Materials and Methods). Cytotoxicity assays were also performed using a human hepatoma cell line (HepG2)[30]. […] This set of compounds was clustered by similarity using a complete-linkage algorithm and a threshold of 0.55[31]. A total of 79 clusters and 54 singletons were obtained.

[4] = Aqueous kinetic solubility assay (CAD); assay type: physicochemical; conditions: several values in a cell = replicates
Experimental: […] of 10 mM DMSO compound solution is diluted to 100 μl with pH7.4 phosphate buffered saline, equilibrated for 1 hour at room temperature and filtered through Millipore MultiscreenHTS-PCF filter plates (MSSL BPC). The filtrate is quantified by suitably calibrated Charged Aerosol Detector[56].

HepG2 cells = experiment: Cytotoxicity assay (CellTiter-Glo); assay type: cell-based; conditions: Homo sapiens, HepG2, read-out: HepG2 (μM)
Experimental: Cytotoxicity assays were performed on HepG2 cells as previously described. HepG2 cells were removed from a T-175 TC flask using 5 mL Eagle’s MEM (containing 10% FBS, 1% NEAA, 1% penicillin/streptomycin) and dispersed in the medium. Seeding density was checked to ensure that new mono-layers were not more than 50% confluent at the time of harvesting. Cells were added to 500 mL of the same medium at a final density of 1.2 × 10^5 cells/mL. They were then dispensed (25 μL, about 3,000 cells per well) into 384-well clear-bottom plates using a Multidrop Combi dispenser. Test compounds (250 nL) were dispensed into the plates with an EchoH liquid handler prior to addition of the cells. Plates were incubated for 48 h at 37 °C, 5% CO2. After incubation, plates were equilibrated at room temperature for 30 minutes before proceeding to develop the luminescent signal. The CellTiter-GloH Reagent was allowed to equilibrate at room temperature for 30 minutes and added to the plates (25 μL per well) using a Multidrop Combi dispenser. Plates were left for 10 minutes at room temperature for stabilization and then read using a Perkin Elmer ViewLux.

T1 sequence (Q8I719 whole entry T618Q): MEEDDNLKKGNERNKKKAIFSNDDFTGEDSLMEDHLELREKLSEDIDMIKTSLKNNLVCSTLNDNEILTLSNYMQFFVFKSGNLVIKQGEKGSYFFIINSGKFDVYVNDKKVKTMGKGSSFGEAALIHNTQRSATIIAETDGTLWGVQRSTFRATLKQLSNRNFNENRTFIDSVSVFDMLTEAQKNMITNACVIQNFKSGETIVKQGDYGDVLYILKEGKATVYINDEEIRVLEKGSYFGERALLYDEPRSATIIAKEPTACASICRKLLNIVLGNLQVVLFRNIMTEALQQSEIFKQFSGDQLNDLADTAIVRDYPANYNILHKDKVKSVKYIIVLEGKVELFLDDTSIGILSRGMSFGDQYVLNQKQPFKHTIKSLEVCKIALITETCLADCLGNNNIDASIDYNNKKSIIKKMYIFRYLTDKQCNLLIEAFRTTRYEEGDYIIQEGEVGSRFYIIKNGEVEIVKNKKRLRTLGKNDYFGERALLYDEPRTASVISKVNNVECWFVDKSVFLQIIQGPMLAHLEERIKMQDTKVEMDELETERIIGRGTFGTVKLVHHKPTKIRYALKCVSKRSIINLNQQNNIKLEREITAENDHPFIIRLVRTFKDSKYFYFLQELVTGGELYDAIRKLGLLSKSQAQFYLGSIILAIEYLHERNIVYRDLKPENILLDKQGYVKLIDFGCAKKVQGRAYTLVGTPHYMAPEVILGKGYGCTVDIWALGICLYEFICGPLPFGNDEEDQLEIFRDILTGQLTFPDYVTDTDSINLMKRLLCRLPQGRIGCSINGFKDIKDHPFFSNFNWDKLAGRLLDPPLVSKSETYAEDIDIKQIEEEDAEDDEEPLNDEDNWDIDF
Chain of PI3KD (O00329 whole entry): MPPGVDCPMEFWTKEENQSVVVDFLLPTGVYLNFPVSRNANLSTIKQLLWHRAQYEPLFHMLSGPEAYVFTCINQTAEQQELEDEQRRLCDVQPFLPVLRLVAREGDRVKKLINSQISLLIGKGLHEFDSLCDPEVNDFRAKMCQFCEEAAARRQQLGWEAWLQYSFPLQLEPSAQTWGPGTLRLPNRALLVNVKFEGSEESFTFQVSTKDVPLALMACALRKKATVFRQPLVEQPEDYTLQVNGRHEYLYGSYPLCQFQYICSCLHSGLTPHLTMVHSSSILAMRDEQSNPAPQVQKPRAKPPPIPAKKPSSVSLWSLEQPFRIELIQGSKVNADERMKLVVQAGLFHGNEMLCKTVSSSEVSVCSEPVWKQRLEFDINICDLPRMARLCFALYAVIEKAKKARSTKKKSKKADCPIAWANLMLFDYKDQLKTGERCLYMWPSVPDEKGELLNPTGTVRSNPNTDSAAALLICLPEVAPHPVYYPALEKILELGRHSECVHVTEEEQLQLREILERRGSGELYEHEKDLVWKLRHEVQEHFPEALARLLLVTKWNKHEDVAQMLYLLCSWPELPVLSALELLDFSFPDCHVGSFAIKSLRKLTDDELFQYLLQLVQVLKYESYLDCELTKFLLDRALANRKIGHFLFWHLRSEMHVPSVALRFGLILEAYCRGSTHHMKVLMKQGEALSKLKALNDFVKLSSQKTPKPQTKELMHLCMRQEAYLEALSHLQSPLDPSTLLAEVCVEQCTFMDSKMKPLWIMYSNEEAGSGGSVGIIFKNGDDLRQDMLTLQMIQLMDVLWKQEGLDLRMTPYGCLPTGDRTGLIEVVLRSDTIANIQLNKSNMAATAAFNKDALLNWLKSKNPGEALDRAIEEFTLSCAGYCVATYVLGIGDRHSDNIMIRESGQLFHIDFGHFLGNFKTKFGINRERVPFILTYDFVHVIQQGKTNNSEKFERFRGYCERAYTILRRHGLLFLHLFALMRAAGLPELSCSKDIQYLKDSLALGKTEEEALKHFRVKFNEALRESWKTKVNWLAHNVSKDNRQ
Chain of PI3KD (P27986 whole entry partner): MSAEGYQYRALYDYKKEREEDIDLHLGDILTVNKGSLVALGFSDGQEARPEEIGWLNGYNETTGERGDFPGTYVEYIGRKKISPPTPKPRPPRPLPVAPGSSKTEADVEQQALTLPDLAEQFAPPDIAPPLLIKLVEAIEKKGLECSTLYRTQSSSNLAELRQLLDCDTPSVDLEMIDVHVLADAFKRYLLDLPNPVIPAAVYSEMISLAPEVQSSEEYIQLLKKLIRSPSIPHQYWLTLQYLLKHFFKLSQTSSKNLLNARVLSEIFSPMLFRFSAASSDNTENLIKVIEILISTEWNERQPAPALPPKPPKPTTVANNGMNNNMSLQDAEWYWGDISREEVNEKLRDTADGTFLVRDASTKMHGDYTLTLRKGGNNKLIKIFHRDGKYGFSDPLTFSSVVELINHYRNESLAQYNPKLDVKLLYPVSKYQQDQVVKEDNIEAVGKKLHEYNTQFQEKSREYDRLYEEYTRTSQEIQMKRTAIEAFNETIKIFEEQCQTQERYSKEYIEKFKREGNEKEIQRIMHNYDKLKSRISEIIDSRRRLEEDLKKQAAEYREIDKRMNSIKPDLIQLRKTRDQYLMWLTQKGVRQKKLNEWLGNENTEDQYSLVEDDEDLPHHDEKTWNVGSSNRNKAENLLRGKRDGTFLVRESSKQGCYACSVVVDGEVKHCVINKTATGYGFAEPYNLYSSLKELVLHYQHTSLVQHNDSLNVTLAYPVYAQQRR
T2 sequence (Q8I719 whole entry): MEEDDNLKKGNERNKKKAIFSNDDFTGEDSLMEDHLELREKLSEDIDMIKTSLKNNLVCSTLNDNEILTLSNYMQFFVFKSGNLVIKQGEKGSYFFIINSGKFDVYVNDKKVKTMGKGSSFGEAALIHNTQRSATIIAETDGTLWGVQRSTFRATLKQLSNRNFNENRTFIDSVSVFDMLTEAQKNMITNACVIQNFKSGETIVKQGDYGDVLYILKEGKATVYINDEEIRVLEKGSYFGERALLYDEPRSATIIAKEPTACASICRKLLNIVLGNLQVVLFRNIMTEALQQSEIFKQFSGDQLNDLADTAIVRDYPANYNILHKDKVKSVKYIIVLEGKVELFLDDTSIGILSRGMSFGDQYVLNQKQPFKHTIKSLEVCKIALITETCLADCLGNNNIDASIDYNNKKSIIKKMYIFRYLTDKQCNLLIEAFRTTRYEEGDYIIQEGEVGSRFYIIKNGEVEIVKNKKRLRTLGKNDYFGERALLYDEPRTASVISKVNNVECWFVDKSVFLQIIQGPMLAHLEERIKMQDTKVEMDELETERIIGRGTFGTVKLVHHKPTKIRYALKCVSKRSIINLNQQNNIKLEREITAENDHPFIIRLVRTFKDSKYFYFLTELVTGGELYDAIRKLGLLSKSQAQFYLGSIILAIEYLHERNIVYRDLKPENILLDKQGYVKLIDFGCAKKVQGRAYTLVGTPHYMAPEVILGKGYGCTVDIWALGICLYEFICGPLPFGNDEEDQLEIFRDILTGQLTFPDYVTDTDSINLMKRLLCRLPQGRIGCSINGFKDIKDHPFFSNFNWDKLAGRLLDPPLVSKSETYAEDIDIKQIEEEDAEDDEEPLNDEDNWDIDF

For `CC(C)(C)c1nc(-c2cccc(NS(=O)(=O)c3c(F)cccc3F)c2F)c(-c2ccnc(N)n2)s1` [dabrafenib], the “patients experiencing severe adverse events” value [1] is listed as 24%.
For `CS(=O)(=O)c1ccc(-c2cnc(N)c(-c3ccc(C(F)(F)F)nc3)c2)cc1` [MMV390048], the ED90 (P. falciparum) is given as 0.57 mg/kg and the ED90 (P. berghei) is given as 1.1 mg/kg.
In the case of `Nc1nccc(-c2c(-c3ccc(F)cc3)ncn2C2CCNCC2)n1` [Compound 1], the IC50 (TQ PfPKG (PfPKG_T618Q)) is reported as > 100 µM, the chromatographic logD [2] is reported as 0.8 and the IC50 (PI3KD) is reported as > 50.1 µM. The IC50 (WT PfPKG) was 0.066 µM, the AM Perm [3] was 9.1 ×10⁻⁶ cm/s and the PFI (PFI) was 3.8. The solubility at 1 h ([4]; pH 7.4, aqueous buffer, kinetic from dmso stock) was 155 µM (≈ 52.5 µg/mL), the solubility at 1 h [4] was 291 µM (≈ 98.5 µg/mL) and the IC50 (HepG2 cells) was > 100 µM.
